Measured values from US12171768B2, “IRAK4 degraders and uses thereof” (priority 2021, dated 2024).
“Also recorded” adds a separate entry of the source. Read-outs that look alike come from different tables or passages of the source.

Experiments:
[1] = test system: imiquimod psoriasis model; test: Imiquimod psoriasis model (TLR 7/8-dependent); format: in vivo, murine
[2] = Phase 1 MAD safety and tolerability; format: in vivo, human; details: multiple daily doses over 14 days up to 200 mg (MAD 4)
From the text: Part B: Part B is a double-blind, randomized, placebo-controlled, MAD, sequential group study in 48 adult HVs, divided in 4 cohorts of 12 adult HVs in each cohort. One or more additional cohorts may be added, as needed.
(§1) All data will be fully listed.

[3] = test system: R848- or LPS-mediated induction of pro-inflammatory cytokines in whole blood; test: Phase 1 SAD ex vivo proinflammatory cytokine induction by R848 and LPS in whole blood; design: species or system human; details: for Mean maximum percent change from baseline, IFNγ / Mean maximum percent change from baseline, IL1β / Mean maximum percent change from baseline, IL6 / Mean maximum percent change from baseline, IL8 / Mean maximum percent change from baseline, IL10 / Mean maximum percent change from baseline, IL12 / Mean maximum percent change from baseline, IL17 / Mean maximum percent change from baseline, TNFα: Cohort 7
[4] = test system: ex vivo proinflammatory cytokine induction by R848 and LPS in whole blood; test: Phase 1 MAD ex vivo proinflammatory cytokine induction by R848 and LPS in whole blood; design: species or system human; details: Day 7-14, daily up to about 200 mg
From the text: In some embodiments, the cytokines include IFN-γ, IL-12, IL-1β, IL-10, IL-6, TNF-α, IL-8, IL-17, and IL-23.

P-glycoprotein (P-gp) = P-glycoprotein (P-gp) (Homo sapiens, UniProt P08183); test: P-gp substrate identification in vitro; format: in vitro ADME
[5] = Phase 1 MAD Compound A concentration in skin; format: in vivo; details: human, oral, Day 14, once daily dosing, read-out: Ctrough (pre-dose) levels in skin relative to plasma
[6] = test system: MSU-crystal induced inflammation; test: Mouse air pouch model of MSU-crystal induced (TLR 2/4-dependent) inflammation; format: in vivo; details: 3 days twice daily, 30 to 100 mg/kg
[7] = test system: TLR agonist (lipopolysaccharide and R848) and IL-1β-induced proinflammatory cytokine production; test: In vitro cytokine release assays in PBMCs; format: cell-based; details: LPS
Solubility = format: physicochemical
[8] = Phase 1 SAD plasma pharmacokinetics; format: in vivo, human; details: for Tmax: healthy volunteers
From the text: Initially, a dose range of Compound A in single ascending dose (SAD) escalation cohorts will be explored in adult HVs (Part A). […] Safety and PK data from at least 3 completed SAD cohorts will determine initiation of and appropriate doses for the 14-day multiple ascending dose (MAD) portion of the study (Part B).
The graphical assessment of dose proportionality will be performed for AUC and Cmax. Relative bioavailability of food effect will be assessed based on AUC and Cmax.

[9] = Distribution studies in rats; format: in vivo
CYP2C19 = CYP2C19 (Homo sapiens, UniProt P33261); test: In vitro drug-drug interaction study, CYP2C19; format: in vitro ADME
CYP3A4 = CYP3A4 (Homo sapiens, UniProt P08684); test: In vitro drug-drug interaction study, CYP3A4; format: in vitro ADME
[10] = In vivo pharmacokinetic studies in rats, dogs and monkeys
[11] = Phase 1 SAD safety and tolerability; format: in vivo, human
Procedure: The safety data up to 24-hours post-dose for these sentinel HVs will be reviewed by the Investigator to ensure acceptable tolerability before commencing administration of the investigational product to the remaining HVs in the cohort. Sequential dosing of HVs within a cohort will be staggered so that there will be at least a gap of 10 minutes between dosing of individual HVs. After the completion of each dose level, the blinded interim PK data through Day 5 and safety data through Day 14 will be reviewed by the SRC before proceeding to the next dose level. Each subsequent dose administration will be performed, if in the judgment of the Investigator and Safety Physician, the results of the safety analyses of the preceding dose administration are satisfactory.
as §1

IRAK4 = target: T1, IRAK4 (Canis lupus familiaris, UniProt A0A8I3S726); test: In vitro IRAK4 degradation in dog PBMCs; format: cell-based; details: read-out: DC50, IRAK4 degradation
T1 construct: endogenous in cells; host or cells: dog PBMCs (A3); PBMCs and skin of dosed dogs (A12)
T1 sequence (A0A8I3S726 1-460): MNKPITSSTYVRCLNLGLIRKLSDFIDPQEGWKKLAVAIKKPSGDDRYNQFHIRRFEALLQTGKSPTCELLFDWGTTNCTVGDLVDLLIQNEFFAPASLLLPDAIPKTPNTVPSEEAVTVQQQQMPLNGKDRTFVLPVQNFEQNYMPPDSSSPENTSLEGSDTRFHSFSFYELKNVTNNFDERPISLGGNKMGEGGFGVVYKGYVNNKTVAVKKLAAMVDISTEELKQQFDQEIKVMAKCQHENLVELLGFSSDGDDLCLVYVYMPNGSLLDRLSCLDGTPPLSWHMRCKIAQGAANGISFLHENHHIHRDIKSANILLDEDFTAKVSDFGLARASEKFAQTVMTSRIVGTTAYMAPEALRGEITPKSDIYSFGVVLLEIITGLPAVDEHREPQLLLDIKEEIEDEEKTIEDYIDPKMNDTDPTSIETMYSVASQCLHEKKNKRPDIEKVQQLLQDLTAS

[12] = blinded SAD safety, per Investigator assessment

CYP3A4, sequence (P08684 whole entry): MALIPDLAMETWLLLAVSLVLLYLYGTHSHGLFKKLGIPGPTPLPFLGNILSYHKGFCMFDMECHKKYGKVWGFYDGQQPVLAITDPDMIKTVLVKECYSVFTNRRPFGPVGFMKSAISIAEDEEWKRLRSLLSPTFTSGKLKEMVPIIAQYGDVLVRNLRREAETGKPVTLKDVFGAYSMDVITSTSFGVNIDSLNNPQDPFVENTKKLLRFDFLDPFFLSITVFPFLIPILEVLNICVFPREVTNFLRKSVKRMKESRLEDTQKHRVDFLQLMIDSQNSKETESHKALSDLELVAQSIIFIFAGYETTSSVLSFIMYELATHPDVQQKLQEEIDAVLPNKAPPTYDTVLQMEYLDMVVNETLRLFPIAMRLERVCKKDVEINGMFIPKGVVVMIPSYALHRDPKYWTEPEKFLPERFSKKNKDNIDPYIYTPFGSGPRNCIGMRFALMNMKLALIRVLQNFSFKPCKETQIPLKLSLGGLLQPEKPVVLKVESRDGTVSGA
CYP2C19, sequence (P33261 whole entry): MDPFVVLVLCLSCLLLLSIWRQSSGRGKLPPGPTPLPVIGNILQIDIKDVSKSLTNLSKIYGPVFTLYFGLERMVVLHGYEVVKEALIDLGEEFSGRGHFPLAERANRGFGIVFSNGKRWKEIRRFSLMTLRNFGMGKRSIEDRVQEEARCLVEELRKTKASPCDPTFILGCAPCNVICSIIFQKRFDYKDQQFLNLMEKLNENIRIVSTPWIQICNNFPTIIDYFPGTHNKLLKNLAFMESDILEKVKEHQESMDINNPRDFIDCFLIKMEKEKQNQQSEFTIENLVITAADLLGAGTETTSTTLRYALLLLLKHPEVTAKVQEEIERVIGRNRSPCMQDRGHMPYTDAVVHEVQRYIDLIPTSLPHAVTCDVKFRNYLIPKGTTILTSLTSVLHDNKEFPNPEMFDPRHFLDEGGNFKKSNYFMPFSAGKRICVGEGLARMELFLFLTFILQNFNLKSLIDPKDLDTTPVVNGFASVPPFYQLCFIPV
P-glycoprotein (P-gp), sequence (P08183 whole entry): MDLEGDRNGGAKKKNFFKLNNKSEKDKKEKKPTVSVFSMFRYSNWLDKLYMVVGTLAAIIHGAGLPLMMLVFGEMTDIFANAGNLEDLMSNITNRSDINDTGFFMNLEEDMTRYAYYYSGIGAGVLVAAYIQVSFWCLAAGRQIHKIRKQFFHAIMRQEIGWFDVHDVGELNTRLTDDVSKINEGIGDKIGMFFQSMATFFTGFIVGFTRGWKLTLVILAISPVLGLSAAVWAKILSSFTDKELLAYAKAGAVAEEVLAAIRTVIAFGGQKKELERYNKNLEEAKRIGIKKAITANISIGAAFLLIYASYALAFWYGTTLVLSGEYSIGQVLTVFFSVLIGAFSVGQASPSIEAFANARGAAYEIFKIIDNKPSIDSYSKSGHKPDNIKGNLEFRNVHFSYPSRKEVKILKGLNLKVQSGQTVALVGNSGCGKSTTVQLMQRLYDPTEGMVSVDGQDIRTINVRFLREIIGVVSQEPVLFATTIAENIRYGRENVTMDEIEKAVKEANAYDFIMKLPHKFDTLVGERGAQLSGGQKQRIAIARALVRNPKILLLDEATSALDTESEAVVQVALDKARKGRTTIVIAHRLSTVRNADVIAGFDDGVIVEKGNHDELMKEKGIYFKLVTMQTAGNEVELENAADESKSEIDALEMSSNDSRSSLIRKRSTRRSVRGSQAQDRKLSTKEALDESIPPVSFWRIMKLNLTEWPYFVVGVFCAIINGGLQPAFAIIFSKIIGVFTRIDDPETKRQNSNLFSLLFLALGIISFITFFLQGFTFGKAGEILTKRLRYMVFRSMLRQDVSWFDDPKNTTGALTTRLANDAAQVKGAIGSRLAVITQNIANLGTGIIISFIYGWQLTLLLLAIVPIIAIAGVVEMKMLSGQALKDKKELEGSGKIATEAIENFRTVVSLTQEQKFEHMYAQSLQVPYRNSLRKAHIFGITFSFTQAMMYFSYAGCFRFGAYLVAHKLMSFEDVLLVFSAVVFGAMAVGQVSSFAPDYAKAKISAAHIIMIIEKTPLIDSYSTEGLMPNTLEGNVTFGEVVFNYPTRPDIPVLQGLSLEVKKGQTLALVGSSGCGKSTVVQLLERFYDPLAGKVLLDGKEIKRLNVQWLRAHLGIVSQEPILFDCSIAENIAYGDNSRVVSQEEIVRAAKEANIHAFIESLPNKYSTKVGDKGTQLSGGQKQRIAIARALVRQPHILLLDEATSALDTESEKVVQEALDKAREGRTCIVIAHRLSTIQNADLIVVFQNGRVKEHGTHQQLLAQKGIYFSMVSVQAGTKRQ

Question: Which “Degradation of IRAK4 in the spleen and skin” value ([1]; mouse, in vivo) does the source give for `Cn1c(=O)n([C@@H]2CCC(=O)NC2=O)c2cccc(C#CCOC3CCN(C[C@H]4CC[C@H](n5cc(NC(=O)c6cnn7ccc(N8C[C@H]9C[C@@H]8CO9)nc67)c(C(F)F)n5)CC4)CC3)c21` [Compound A, 5-((1R,4R)-2-oxa-5-azabicyclo[2.2.1]heptan-5-yl)-N-(3-(difluoromethyl)-1-((1r,4R)-4-((4-((3-(1-(2,6-dioxopiperidin-3-yl)-3-methyl-2-oxo-2,3-dihydro-1H-benzo[d]imidazol-4-yl)prop-2-yn-1-yl)oxy)piperidin-1-yl)methyl)cyclohexyl)-1H-pyrazol-4-yl)pyrazolo[1,5-a]pyrimidine-3-carboxamide] here?
Answer: dose-dependent degradation

Question: And the Skin thickness ([1]; mouse, in vivo)?
Answer: reduction in skin thickness

Question: What about the “IL-1β in the skin” value ([1]; p<0.0001) of the same compound?
Answer: significant reduction

Question: And the “IL-6 in the skin” value ([1]; p<0.05, 300 mg/kg only)?
Answer: significant reduction

Question: What about the Safety and tolerability [2] of the same compound?
Answer: safe and well-tolerated

Question: And the “Mean maximum ex vivo cytokine inhibition” value ([3]; 24-48 h post-dose, LPS or R848, whole blood)?
Answer: up to 97%

Question: And the “Mean maximum percent change from baseline, IFNγ” value ([3]; LPS, 24-48 hours)?
Answer: −42%^

Question: What about the “Mean maximum percent change from baseline, IL1β” value ([3]; LPS, 24-48 hours) of the same compound?
Answer: −68%^1

Question: And the “Mean maximum percent change from baseline, IL6” value ([3]; LPS, 24-48 hours)?
Answer: −62%^1

Question: What about the “Mean maximum percent change from baseline, IL8” value ([3]; LPS, 24-48 hours) of the same compound?
Answer: −81%^1

Question: What about the “Mean maximum percent change from baseline, IL10” value ([3]; LPS, 24-48 hours) of the same compound?
Answer: −83%^1

Question: What about the “Mean maximum percent change from baseline, IL12” value ([3]; LPS, 24-48 hours) of the same compound?
Answer: −35%^2

Question: What about the “Mean maximum percent change from baseline, IL17” value ([3]; LPS, 24-48 hours) of the same compound?
Answer: −43%^2

Question: And the “Mean maximum percent change from baseline, TNFα” value ([3]; LPS, 24-48 hours)?
Answer: −42%^2

Question: What about the “Mean maximum percent change from baseline, IFNγ” value ([3]; R848, 24-48 hours) of the same compound?
Answer: −97%^2

Question: And the “Mean maximum percent change from baseline, IL1β” value ([3]; R848, 24-48 hours)?
Answer: −92%^1

Question: What about the “Mean maximum percent change from baseline, IL6” value ([3]; R848, 24-48 hours) of the same compound?
Answer: −88%^1

Question: And the “Mean maximum percent change from baseline, IL8” value ([3]; R848, 24-48 hours)?
Answer: −54%^

Question: And the “Mean maximum percent change from baseline, IL10” value ([3]; R848, 24-48 hours)?
Answer: −89%^1

Question: And the “Mean maximum percent change from baseline, IL12” value ([3]; R848, 24-48 hours)?
Answer: −93%^1

Question: What about the “Mean maximum percent change from baseline, IL17” value ([3]; R848, 24-48 hours) of the same compound?
Answer: −79%^1

Question: What about the “Mean maximum percent change from baseline, TNFα” value ([3]; R848, 24-48 hours) of the same compound?
Answer: −88%^2

Question: And the “Inhibition of IFN-γ in whole blood” value [4]?
Answer: up to 85%

Question: And the P-gp substrate (P-glycoprotein (P-gp))?
Answer: substrate

Question: What about the Kp at 14 day [5] of the same compound?
Answer: ~10

Question: And the “IRAK4 levels in the spleen” value [6]?
Answer: significantly reduced

Question: What about the “Inflammatory exudate, including neutrophils and IL-1β” value [6] of the same compound?
Answer: significantly reduced

Question: And the “IC50, inhibition of proinflammatory cytokine production (IL-6, TNF-α, GM-CSF, IL-8)” value [7]?
Answer: low nM range

Question: What about the “BCS classification (tentative)” value (Solubility) of the same compound?
Answer: BCS II

Question: What about the solubility (Solubility) of the same compound?
Answer: low

Question: And the solubility (Solubility; FaSSIF, pH 6.5, fassif, read-out: Solubility in bio-relevant fluid FaSSIF)?
Answer: < 12000 µg/mL

Question: And the solubility (Solubility; aqueous media, aqueous buffer, across the physiological pH range, read-out: Aqueous solubility)?
Answer: ≤ 3000 µg/mL

Question: What about the Dose-dependent plasma exposures ([8]; SAD) of the same compound?
Answer: plateaued after 1000 mg

Question: And the half-life ([8]; human, plasma, oral, after single dosing, across SAD cohorts)?
Answer: 25 to 40 h

Question: What about the Tmax ([8]; human, plasma, SAD 1, single oral dose 25 mg) of the same compound?
Answer: 8 h

Question: What about the Tmax ([8]; human, plasma, SAD 2, single oral dose 75 mg) of the same compound?
Answer: 7 h

Question: What about the Tmax ([8]; human, plasma, SAD 3, single oral dose 150 mg) of the same compound?
Answer: 9 h

Question: And the Tmax ([8]; human, plasma, SAD 4, single oral dose 300 mg)?
Answer: 8 h

Question: And the Tmax ([8]; human, plasma, SAD 6, single oral dose 1000 mg)?
Answer: 20 h

Question: What about the “Penetration into the central nervous system (CNS)” value [9] of the same compound?
Answer: limited penetration

Question: What about the Tissue distribution [9] of the same compound?
Answer: extensively distributed into tissues

Question: And the “Inhibition of CYP2C19” value (CYP2C19)?
Answer: potential time dependent inhibition

Question: And the “Inhibition of CYP3A4” value (CYP3A4)?
Answer: potential time dependent inhibition

Question: What about the Bioavailability [10] of the same compound?
Answer: low to moderate

Question: What about the Clearance [10] of the same compound?
Answer: moderate to high

Question: What about the Terminal half-life [10] of the same compound?
Answer: moderate

Question: And the “Volume of distribution at steady state” value [10]?
Answer: high

Question: What about the ECG changes ([11]; SAD) of the same compound?
Answer: No significant ECG changes

Question: What about the QTcF prolongation ([11]; SAD) of the same compound?
Answer: no clinically significant QTcF prolongation

Question: And the Serious adverse events ([11]; SAD)?
Answer: no serious adverse events; also recorded: No SAEs

Question: What about the AST elevation ([11]; SAD 5, n=1, resolution ~Day 21) of the same compound?
Answer: 3.8 × ULN

Question: What about the ALT elevation ([11]; SAD 5, n=1, slow resolution to baseline) of the same compound?
Answer: 2.5 × ULN

Question: And the “Study treatment related AEs, Abdominal pain, #AEs” value [11, 12]?
Answer: 1

Question: What about the “Study treatment related AEs, Diarrhea, #AEs” value [11, 12] of the same compound?
Answer: 2

Question: What about the “Study treatment related AEs, Diarrhea, (subjects)” value [11, 12] of the same compound?
Answer: (2)

Question: What about the “Study treatment related AEs, Headache, #AEs” value [11, 12] of the same compound?
Answer: 5

Question: What about the “Study treatment related AEs, Headache, (subjects)” value [11, 12] of the same compound?
Answer: (4)

Question: And the “Study treatment related AEs, Muscle weakness, #AEs” value [11, 12]?
Answer: 1

Question: What about the “Study treatment related AEs, Myalgia, #AEs” value [11, 12] of the same compound?
Answer: 1

Question: And the “Study treatment related AEs, Nausea, #AEs” value [11, 12]?
Answer: 3

Question: What about the “Study treatment related AEs, Nausea, (subjects)” value [11, 12] of the same compound?
Answer: (3)

Question: And the “Study treatment related AEs, Palpitations, #AEs” value [11, 12]?
Answer: 1

Question: And the “Study treatment related AEs, Vomiting, #AEs” value [11, 12]?
Answer: 2

Question: What about the “Study treatment related AEs, Vomiting, (subjects)” value [11, 12] of the same compound?
Answer: (1)

Question: What about the Safety and tolerability ([11]; single doses, SAD) of the same compound?
Answer: safe and well-tolerated

Question: What about the DC50 (IRAK4) of the same compound?
Answer: < 0.01 µM
